pIC50: −log10 of the molar value.
How the values were obtained:
[1] = biological target: T1, BaF3 TELJAK2 cells (BafT_J2) (Homo sapiens, UniProt O60674); experiment: Cellular screening, BaF3 TEL:JAK2 cells, Alamar Blue; assay type: cell-based; settings: 40 hr, read-out: BafT_J2 IC50_nM
T1 construct: fused on or other part: TEL (ETV6) N-terminal part, coding nucleotides 1-487, serves as the oligomerising partner; It is fused through a Sal I site to the JAK2 kinase domain and expressed from pTRE2 in BaF3 cells bearing pTET-off; P41212 (Transcription factor ETV6)
Summary of the method: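 Tet-off BaF3 cells carrying a TEL (nt 1-487)–JAK2 kinase-domain fusion, grown factor-independently in DMEM with 10% Tet-approved FBS without WEHI 3B medium. Compounds were diluted to 20 μM in screening plates, and cells (50,000–200,000 cell/mL at 1.1×) were incubated 40 hr at 37 °C, 5% CO2. Alamar Blue was then added for 4-6 hours; read at 544 nm.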

[2] = biological target: T2, human JAK2 (Homo sapiens, UniProt O60674); experiment: Alphascreen tyrosine kinase enzyme assay, JAK2 kinase domain; assay type: biochemical; settings: read-out: JAK2 IC50_nM
T2 construct: The kinase domain of human JAK2 was amplified; GST (N); made in house; host or cells: Sf9 insect cells (baculovirus)
Summary of the method: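 JAK2 kinase domain expressed in baculovirus/Sf9 and glutathione-affinity purified. Compounds (final […]) pre-incubated 20 min with enzyme in 10 mM HEPES pH 7.5, MgCl2, NaCl, vanadate, 0.1% Tween 20.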

T1 sequence (O60674 whole entry, change not shown, the tested form may be a part): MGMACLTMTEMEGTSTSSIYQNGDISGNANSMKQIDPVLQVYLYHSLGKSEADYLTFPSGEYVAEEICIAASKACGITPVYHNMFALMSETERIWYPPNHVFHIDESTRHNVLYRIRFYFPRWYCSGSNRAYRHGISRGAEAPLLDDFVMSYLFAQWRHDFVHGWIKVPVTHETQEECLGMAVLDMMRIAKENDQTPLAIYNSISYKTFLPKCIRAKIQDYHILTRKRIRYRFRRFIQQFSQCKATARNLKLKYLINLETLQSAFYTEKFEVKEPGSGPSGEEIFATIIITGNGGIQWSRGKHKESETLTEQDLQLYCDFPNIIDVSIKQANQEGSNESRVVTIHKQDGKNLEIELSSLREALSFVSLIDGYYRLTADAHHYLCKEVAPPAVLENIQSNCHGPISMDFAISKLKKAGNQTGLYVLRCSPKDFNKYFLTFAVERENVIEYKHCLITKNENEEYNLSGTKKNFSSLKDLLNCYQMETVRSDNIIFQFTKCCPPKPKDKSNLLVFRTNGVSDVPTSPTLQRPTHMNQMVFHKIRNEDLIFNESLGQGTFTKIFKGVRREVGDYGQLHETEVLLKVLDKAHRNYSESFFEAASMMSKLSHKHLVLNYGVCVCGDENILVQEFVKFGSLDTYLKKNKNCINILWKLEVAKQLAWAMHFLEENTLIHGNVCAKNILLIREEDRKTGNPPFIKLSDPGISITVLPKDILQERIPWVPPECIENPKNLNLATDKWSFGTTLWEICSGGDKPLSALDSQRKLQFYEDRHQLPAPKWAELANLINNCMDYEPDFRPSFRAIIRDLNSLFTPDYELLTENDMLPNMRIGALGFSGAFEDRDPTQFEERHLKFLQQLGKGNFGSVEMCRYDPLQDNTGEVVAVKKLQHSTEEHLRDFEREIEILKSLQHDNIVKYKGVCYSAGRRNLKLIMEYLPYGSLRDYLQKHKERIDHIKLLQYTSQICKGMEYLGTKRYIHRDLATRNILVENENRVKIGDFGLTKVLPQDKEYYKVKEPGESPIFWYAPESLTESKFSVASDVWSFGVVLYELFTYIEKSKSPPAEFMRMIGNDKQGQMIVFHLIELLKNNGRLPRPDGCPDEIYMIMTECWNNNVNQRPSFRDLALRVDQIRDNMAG
T2 sequence (O60674 849-1124 limits assumed): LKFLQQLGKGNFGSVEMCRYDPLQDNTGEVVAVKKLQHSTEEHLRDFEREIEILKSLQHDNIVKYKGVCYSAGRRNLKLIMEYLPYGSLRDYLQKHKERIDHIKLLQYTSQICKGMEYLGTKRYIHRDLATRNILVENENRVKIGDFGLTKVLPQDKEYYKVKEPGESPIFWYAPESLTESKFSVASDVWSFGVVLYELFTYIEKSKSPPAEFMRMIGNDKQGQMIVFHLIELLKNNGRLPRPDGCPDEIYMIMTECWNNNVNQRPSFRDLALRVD

C=CC(=O)Nc1cccc(Nc2nccc(Sc3cccc(OC)c3)n2)c1 [Compound 31, N-(3-(4-(3-methoxyphenylthio)pyrimidin-2-ylao)phenyl)acrylamide]
GI50 [1]: < 20 µM | pIC50 [2]: < 6.00

COc1cc(Nc2nccc(Sc3ccc(NCC#N)cc3)n2)cc(OC)c1OC [Compound 52, 2-(4-(2-(3,4,5-trimethoxyphenylao)pyrimidin-4-ylthio)phenylao)acetonitrile]
GI50 [1]: < 5 µM | pIC50 [2]: < 6.00

CC(=O)Nc1ccc(Sc2ccnc(Nc3ccc(N4CCC(N5CCCC5)CC4)cc3)n2)cc1 [Compound 86, N-(4-(2-(4-(4-(pyrrolidin-1-yl)piperidin-1-yl)phenylao)pyrimidin-4-ylthio)phenyl)acetamide]
GI50 [1]: < 20 µM | pIC50 [2]: < 6.00

N#CCC(=O)Nc1ccc(Sc2ccnc(Nc3ccc(N4CCC(N5CCCC5)CC4)cc3)n2)cc1 [Compound 88, 2-cyano-N-(4-(2-(4-(4-(pyrrolidin-1-yl)piperidin-1-yl)phenylao)pyrimidin-4-ylthio)phenyl)acetamide]
GI50 [1]: < 5 µM | pIC50 [2]: < 6.00

C=CC(=O)N(C)c1ccc(Sc2ccnc(Nc3ccc(N4CCOCC4)cc3)n2)cc1 [Compound 91, N-methyl-N-(4-(2-(4-morpholinophenylao)pyrimidin-4-ylthio)phenyl)acrylamide]
GI50 [1]: < 20 µM | pIC50 [2]: < 6.00

COc1ccc(Nc2nccc(Sc3ccc(NC(=O)CC#N)cc3)n2)cc1OC [Compound 101, 2-cyano-N-(4-(2-(3,4-dimethoxyphenylao)pyrimidin-4-ylthio)phenyl)acetamide]
GI50 [1]: < 5 µM | pIC50 [2]: < 6.00

COc1cc(Sc2ccnc(Nc3ccc(N4CCOCC4)cc3)n2)ccc1N [Compound 117, 4-(4-ao-3-methoxyphenylthio)-N-(4-morpholinophenyl)pyrimidin-2-ae]
GI50 [1]: < 20 µM | pIC50 [2]: < 6.00

c1cn(Cc2ccc(Sc3ccnc(Nc4ccc(N5CCOCC5)cc4)n3)cc2)cn1 [Compound 127, 4-(4-((1H-imidazol-1-yl)methyl)phenylthio)-N-(4-morpholinophenyl)pyrimidin-2-ae]
GI50 [1]: < 20 µM | pIC50 [2]: > 6.00

Cc1cnc(Nc2ccc(N3CCOCC3)cc2)nc1Sc1ccc(C#N)cc1 [Compound 136, 4-(5-methyl-2-(4-morpholinophenylao)pyrimidin-4-ylthio)benzonitrile]
GI50 [1]: > 20 µM | pIC50 [2]: < 6.00

CCOC(=O)c1nccn1Cc1ccc(Sc2ccnc(Nc3ccc(N4CCOCC4)cc3)n2)cc1 [Compound 148, ethyl 1-(4-(2-(4-morpholinophenylao)pyrimidin-4-ylthio)benzyl)-1H-imidazole-2-carboxylate]
GI50 [1]: < 20 µM | pIC50 [2]: < 6.00

NC(=O)c1nccn1Cc1ccc(Sc2ccnc(Nc3ccc(N4CCOCC4)cc3)n2)cc1 [Compound 149, 1-(4-(2-(4-morpholinophenylao)pyrimidin-4-ylthio)benzyl)-1H-imidazole-2-carboxamide]
GI50 [1]: < 5 µM | pIC50 [2]: < 6.00

N#Cc1nccc(Sc2ccc(Sc3ccnc(Nc4ccc(N5CCOCC5)cc4)n3)cc2)n1 [Compound 154, 4-(4-(2-(4-morpholinophenylao)pyrimidin-4-ylthio)phenylthio)pyrimidine-2-carbonitrile]
GI50 [1]: < 5 µM | pIC50 [2]: < 6.00

Cc1cnc(Nc2ccc(N3CCOCC3)cc2)nc1Sc1ccc2c(c1)CCCN2 [Compound 166, 5-methyl-N-(4-morpholinophenyl)-4-(1,2,3,4-tetrahydroquinolin-6-ylthio)pyrimidin-2-ae]
GI50 [1]: < 5 µM | pIC50 [2]: < 6.00

C=CC(=O)Nc1ccc(Sc2nc(Nc3ccc(N4CCOCC4)cc3)ncc2C)c(Cl)c1C [Compound 171, N-(3-chloro-2-methyl-4-(5-methyl-2-(4-morpholinophenylao)pyrimidin-4-ylthio)phenyl)acrylamide]
GI50 [1]: > 20 µM | pIC50 [2]: < 6.00

CSc1nc(Nc2ccc(N3CCOCC3)cc2)ncc1C [Compound 176, 5-methyl-4-(methylthio)-N-(4-morpholinophenyl)pyrimidin-2-ae]
GI50 [1]: < 5 µM | pIC50 [2]: > 6.00

Cc1cnc(Nc2ccc(N3CCOCC3)cc2)nc1Sc1ccc(NC(=O)COCC(=O)O)cc1 [Compound 188, 2-(2-(4-(5-methyl-2-(4-morpholinophenylao)pyrimidin-4-ylthio)phenylao)-2-oxoethoxy)acetic acid]
GI50 [1]: > 20 µM | pIC50 [2]: > 6.30

COC(=O)COCC(=O)Nc1ccc(Sc2nc(Nc3ccc(N4CCOCC4)cc3)ncc2C)cc1 [Compound 189, methyl 2-(2-(4-(5-methyl-2-(4-morpholinophenylao)pyrimidin-4-ylthio)phenylao)-2-oxoethoxy)acetate]
GI50 [1]: < 20 µM | pIC50 [2]: < 6.00

C=CC(=O)Nc1ccc(Sc2ccnc(Nc3ccccc3O)n2)cc1 [Compound 279, N-(4-(2-(2-hydroxyphenylao)pyrimidin-4-ylthio)phenyl)acrylamide]
GI50 [1]: < 20 µM | pIC50 [2]: < 6.00

C=CC(=O)Nc1ccc(Sc2nc(Nc3cccc(O)c3)ncc2C)cc1 [Compound 281, N-(4-(2-(3-hydroxyphenylao)-5-methylpyrimidin-4-ylthio)phenyl)acrylamide]
GI50 [1]: < 20 µM | pIC50 [2]: < 6.00

C=CC(=O)Nc1ccc(Sc2nc(Nc3ccc(O)cc3)ncc2C)cc1 [Compound 282, N-(4-(2-(4-hydroxyphenylao)-5-methylpyrimidin-4-ylthio)phenyl)acrylamide]
GI50 [1]: < 20 µM | pIC50 [2]: < 6.00

C=CC(=O)Nc1ccc(Sc2nc(Nc3ccc(OC)c(O)c3)ncc2C)cc1 [Compound 283, N-(4-(2-(3-hydroxy-4-methoxyphenylao)-5-methylpyrimidin-4-ylthio)phenyl)acrylamide]
GI50 [1]: < 20 µM | pIC50 [2]: < 6.00

C=CC(=O)Nc1ccc(Sc2nc(Nc3ccc4c(c3)OCO4)ncc2C)cc1 [Compound 284, N-(4-(2-(benzo[d][1,3]dioxol-5-ylao)-5-methylpyrimidin-4-ylthio)phenyl)acrylamide]
GI50 [1]: < 20 µM | pIC50 [2]: < 6.00

C=CC(=O)Nc1ccc(Sc2nc(Nc3ccccc3O)ncc2C)cc1 [Compound 287, N-(4-(2-(2-hydroxyphenylao)-5-methylpyrimidin-4-ylthio)phenyl)acrylamide]
GI50 [1]: > 20 µM | pIC50 [2]: < 6.00

C=CC(=O)Nc1ccc(Sc2nc(Nc3cccc(OC(F)(F)F)c3)ncc2C)cc1 [Compound 289, N-(4-(5-methyl-2-(3-(trifluoromethoxy)phenylao)pyrimidin-4-ylthio)phenyl)acrylamide]
GI50 [1]: < 20 µM | pIC50 [2]: < 6.00

C=CC(=O)Nc1ccc(Sc2nc(Nc3ccc(N4CCS(=O)(=O)CC4)cc3)ncc2C)cc1 [Compound 298, N-{4-[(2-{[4-(1,1-dioxo-1λ^6,4-thiomorpholin-4-yl)phenyl]ao}-5-methylpyrimidin-4-yl)sulfanyl]phenyl}prop-2-enamide]
GI50 [1]: < 20 µM | pIC50 [2]: < 6.00

C=CC(=O)Nc1ccc(Sc2nc(Nc3cccc(OCCCO)c3)ncc2C)cc1 [Compound 301, N-(4-(2-(3-(3-hydroxypropoxy)phenylao)-5-methylpyrimidin-4-ylthio)phenyl)acrylamide]
GI50 [1]: < 20 µM | pIC50 [2]: < 6.00

Nc1ccc(Sc2nc(Nc3ccc(N4CCOCC4)cc3)ncc2I)cc1 [Compound 309, 4-(4-aophenylthio)-5-iodo-N-(4-morpholinophenyl)pyrimidin-2-ae]
GI50 [1]: < 5 µM | pIC50 [2]: < 6.00

C=CC(=O)Nc1ccc(Sc2nc(Nc3ccc(N4CCOCC4)cc3)ncc2I)cc1 [Compound 313, N-(4-(5-iodo-2-(4-morpholinophenylao)pyrimidin-4-ylthio)phenyl)acrylamide]
GI50 [1]: > 20 µM | pIC50 [2]: < 6.00

C=CC(=O)Nc1ccc(Sc2nc(Nc3ccc(N4CCOCC4)cc3)ncc2Cl)cc1 [Compound 315, N-(4-(5-chloro-2-(4-morpholinophenylao)pyrimidin-4-ylthio)phenyl)acrylmide]
GI50 [1]: > 20 µM | pIC50 [2]: < 6.00

Nc1ccc(Sc2nc(Nc3ccc(N4CCOCC4)cc3)ncc2Cl)cc1 [Compound 318, 4-(4-aophenylthio)-5-chloro-N-(4-morpholinophenyl)pyrimidin-2-ae]
GI50 [1]: > 20 µM | pIC50 [2]: < 6.00

C=C(CN1CCOCC1)C(=O)Nc1cccc(Sc2ccnc(Nc3ccc(N4CCOCC4)cc3)n2)c1 [Compound 328, 2-(morpholinomethyl)-N-(3-(2-(4-morpholinophenylao)pyrimidin-4-ylthio)phenyl)acrylamide]
GI50 [1]: < 1 µM | pIC50 [2]: < 6.00

O=C(CCl)Nc1cccc(Sc2ccnc(Nc3ccc(N4CCOCC4)cc3)n2)c1 [Compound 332, 2-chloro-N-(3-(2-(4-morpholinophenylao)pyrimidin-4-ylthio)phenyl)acetamide]
GI50 [1]: < 5 µM | pIC50 [2]: < 6.00

O=C(/C=C/Cl)Nc1ccc(Sc2ccnc(Nc3ccc(N4CCOCC4)cc3)n2)cc1 [Compound 342, (E)-3-chloro-N-(4-(2-(4-morpholinophenylao)pyrimidin-4-ylthio)phenyl)acrylamide]
GI50 [1]: > 20 µM | pIC50 [2]: < 6.00

Cc1cnc(Nc2ccc(N3CCOCC3)cc2)nc1Sc1ccc(NC(=O)/C=C/Cl)cc1 [Compound 343, (E)-3-chloro-N-(4-(5-methyl-2-(4-morpholinophenylao)pyrimidin-4-ylthio)phenyl)acrylamide]
GI50 [1]: < 20 µM | pIC50 [2]: < 6.00

CCC(=O)Nc1ccc(Sc2nc(Nc3ccc(N4CCOCC4)cc3)ncc2Cl)cc1 [Compound 347, N-(4-(5-chloro-2-(4-morpholinophenylao)pyrimidin-4-ylthio)phenyl)propionamide]
GI50 [1]: > 20 µM | pIC50 [2]: < 6.00
